In patent US12655116B2, “Substituted isophthalic acid diamides” (Bayer Aktiengesellschaft, priority 2020, dated 2026):

How the values were obtained:
DIGSA [1] = experiment: Post-emergence herbicidal action against DIGSA; format: in vivo, Digitaria sanguinalis
In short: (§1)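 Post-emergence greenhouse test; one-leaf stage, 2–3 wk post-sowing, sandy loam. Foliar spray of WP/EC in water, 600–800 l/ha, +0.2% wetting agent. Visual % action at ~3 wk vs untreated (100% = plants dead).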

SETVI [2] = experiment: Pre-emergence herbicidal action against SETVI; format: in vivo, Setaria viridis; conditions: dosage 80 g/ha
In short: (§2)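 Herbicidal effect was assessed 3 weeks after treatment by visual comparison with untreated controls, 100% denoting dead plants. Aqueous WP or EC preparations had been applied at 600 to 800 l/ha with 0.2% wetting agent to the soil covering freshly sown seeds.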

LOLRI = experiment: Pre-emergence herbicidal action against LOLRI; format: in vivo, Lolium rigidum; conditions: Lolium rigidum, 504 h, 80 g/ha
In short: as §2

VIOTR [3] = experiment: Pre-emergence herbicidal action against VIOTR; format: in vivo, Viola tricolor
In short: as §2

ALOMY [4] = experiment: Pre-emergence herbicidal action against ALOMY; format: in vivo, Alopecurus myosuroides; conditions: 80 g/ha, pre-emergence, scored visually after 3 weeks vs untreated controls (100% = plants have died, 0% = like control plants)
In short: as §2

ECHCG [5] = experiment: Pre-emergence herbicidal action against ECHCG; format: in vivo, Echinochloa crus-galli
In short: as §2

VERPE [6] = experiment: Pre-emergence herbicidal action against VERPE; format: in vivo, Veronica persica; conditions: Veronica persica, 504 h
In short: as §2

ALOMY [7] = experiment: Post-emergence herbicidal action against ALOMY; format: in vivo, Alopecurus myosuroides; conditions: Alopecurus myosuroides, 504 h, visual assessment about 3 weeks after treatment vs untreated controls
In short: as §1

ABUTH [8] = experiment: Post-emergence herbicidal action against ABUTH; format: in vivo, Abutilon theophrasti; conditions: visual assessment about 3 weeks after treatment vs untreated controls
In short: as §1

PHBPU [9] = experiment: Pre-emergence herbicidal action against PHBPU; format: in vivo, Pharbitis purpurea; conditions: Ipomoea purpurea, 504 h
In short: as §2

VIOTR [10] = experiment: Post-emergence herbicidal action against VIOTR; format: in vivo, Viola tricolor; conditions: 20 g/ha
In short: as §1

AMARE [11] = experiment: Post-emergence herbicidal action against AMARE; format: in vivo, Amaranthus retroflexus; conditions: 20 g/ha, visual assessment about 3 weeks after treatment, 100% = plants have died, 0% = like control plants
In short: as §1

ECHCG [12] = experiment: Post-emergence herbicidal action against ECHCG; format: in vivo, Echinochloa crus-galli
In short: as §1

ABUTH [13] = experiment: Pre-emergence herbicidal action against ABUTH; format: in vivo, Abutilon theophrasti
In short: as §2

PHBPU [14] = experiment: Post-emergence herbicidal action against PHBPU; format: in vivo, Pharbitis purpurea; conditions: dosage 20 g/ha
In short: as §1

MATIN [15] = experiment: Pre-emergence herbicidal action against MATIN; format: in vivo, Matricaria inodora
In short: as §2

DIGSA [16] = experiment: Pre-emergence herbicidal action against DIGSA; format: in vivo, Digitaria sanguinalis
In short: as §2

VERPE [17] = experiment: Post-emergence herbicidal action against VERPE; format: in vivo, Veronica persica; conditions: Veronica persica, 504 h
In short: as §1

SETVI [18] = experiment: Post-emergence herbicidal action against SETVI; format: in vivo, Setaria viridis; conditions: dosage 20 g/ha
In short: as §1

AVEFA [19] = experiment: Post-emergence herbicidal action against AVEFA; format: in vivo, Avena fatua; conditions: Avena fatua, 504 h, 20 g/ha, visual assessment about 3 weeks after treatment, 100% = plants have died, 0% = like control plants
In short: as §1

POLCO [20] = experiment: Pre-emergence herbicidal action against POLCO; format: in vivo, Polygonum convolvulus; conditions: dosage 80 g/ha
In short: as §2

POLCO [21] = experiment: Post-emergence herbicidal action against POLCO; format: in vivo, Polygonum convolvulus; conditions: dosage 20 g/ha
In short: as §1

AMARE [22] = experiment: Pre-emergence herbicidal action against AMARE; format: in vivo, Amaranthus retroflexus
In short: as §2

MATIN [23] = experiment: Post-emergence herbicidal action against MATIN; format: in vivo, Matricaria inodora; conditions: Tripleurospermum inodorum, 504 h
In short: as §1

AVEFA [24] = experiment: Pre-emergence herbicidal action against AVEFA; format: in vivo, Avena fatua; conditions: 80 g/ha, pre-emergence
In short: as §2

STEME [25] = experiment: Pre-emergence herbicidal action against STEME; format: in vivo, Stellaria media
In short: as §2

STEME [26] = experiment: Post-emergence herbicidal action against STEME; format: in vivo, Stellaria media; conditions: 20 g/ha
In short: as §1

HORMU = experiment: Pre-emergence herbicidal action against HORMU; format: in vivo, Hordeum murinum; conditions: 80 g/ha, pre-emergence
In short: as §2

[27] = 80 g/ha, scored visually after 3 weeks vs untreated controls (100% = plants have died, 0% = like control plants)

CCc1c(C(=O)Nc2nnnn2C)ccc(C(F)(F)F)c1C(=O)NC [Example 1-271]
pest or weed control at 5 g/ha (DIGSA [1]; Digitaria sanguinalis, 504 h, 5 g/ha): 90%
pest or weed control at 20 g/ha (DIGSA [1]; Digitaria sanguinalis, 504 h, 20 g/ha): 100%
pest or weed control at 80 g/ha (SETVI [2]; Setaria viridis, 504 h): 100%
pest or weed control at 80 g/ha (LOLRI): 100%
pest or weed control at 20 g/ha (VIOTR [3]; Viola tricolor, 504 h, dosage 20 g/ha): 100%
pest or weed control at 80 g/ha (VIOTR [3]; Viola tricolor, 504 h, dosage 80 g/ha): 100%
pest or weed control at 80 g/ha (ALOMY [4]; Alopecurus myosuroides, 504 h): 90%
pest or weed control at 20 g/ha (ECHCG [5]; Echinochloa crus-galli, 504 h, 20 g/ha): 90%
pest or weed control at 80 g/ha (ECHCG [5]; Echinochloa crus-galli, 504 h, 80 g/ha): 100%
pest or weed control at 20 g/ha (VERPE [6]; dosage 20 g/ha): 90%
pest or weed control at 80 g/ha (VERPE [6]; dosage 80 g/ha): 100%
pest or weed control at 5 g/ha (ALOMY [7]; dosage 5 g/ha): 80%
pest or weed control at 20 g/ha (ALOMY [7]; dosage 20 g/ha): 90%
pest or weed control at 5 g/ha (ABUTH [8]; Abutilon theophrasti, 504 h, dosage 5 g/ha): 80%
pest or weed control at 20 g/ha (ABUTH [8]; Abutilon theophrasti, 504 h, dosage 20 g/ha): 90%
pest or weed control at 20 g/ha (PHBPU [9]; dosage 20 g/ha): 80%
pest or weed control at 80 g/ha (PHBPU [9]; dosage 80 g/ha): 90%
pest or weed control at 20 g/ha (VIOTR [10]; Viola tricolor, 504 h): 90%
pest or weed control at 20 g/ha (AMARE [11]; Amaranthus retroflexus, 504 h): 90%
pest or weed control at 5 g/ha (ECHCG [12]; Echinochloa crus-galli, 504 h, dosage 5 g/ha): 80%
pest or weed control at 20 g/ha (ECHCG [12]; Echinochloa crus-galli, 504 h, dosage 20 g/ha): 80%
pest or weed control at 80 g/ha (ABUTH [13]; Abutilon theophrasti, 504 h, 80 g/ha, scored visually after 3 weeks vs untreated controls (100% = plants have died, 0% = like control plants)): 100%
pest or weed control at 20 g/ha (ABUTH [13]; Abutilon theophrasti, 504 h, dosage 20 g/ha, scored visually after 3 weeks vs untreated controls, 100% = plants have died, 0% = like control plants, read-out: Pre-emergence action against ABUTH (herbicidal activity in percent)): 100%
pest or weed control at 20 g/ha (PHBPU [14]; Ipomoea purpurea, 504 h): 90%
pest or weed control at 20 g/ha (MATIN [15]; Tripleurospermum inodorum, 504 h, dosage 20 g/ha): 100%
pest or weed control at 80 g/ha (MATIN [15]; Tripleurospermum inodorum, 504 h, dosage 80 g/ha): 100%
pest or weed control at 20 g/ha (DIGSA [16]; Digitaria sanguinalis, 504 h, dosage 20 g/ha): 100%
pest or weed control at 80 g/ha (DIGSA [16]; Digitaria sanguinalis, 504 h, dosage 80 g/ha): 100%
pest or weed control at 5 g/ha (VERPE [17]; 5 g/ha): 80%
pest or weed control at 20 g/ha (VERPE [17]; 20 g/ha): 90%
pest or weed control at 20 g/ha (SETVI [18]; Setaria viridis, 504 h): 80%
pest or weed control at 20 g/ha (AVEFA [19]): 80%
pest or weed control at 80 g/ha (POLCO [20]; Fallopia convolvulus, 504 h): 80%
pest or weed control at 20 g/ha (POLCO [21]; Fallopia convolvulus, 504 h): 80%
pest or weed control at 20 g/ha (AMARE [22]; Amaranthus retroflexus, 504 h, 20 g/ha, scored visually after 3 weeks vs untreated controls, 100% = plants have died, 0% = like control plants): 100%
pest or weed control at 80 g/ha (AMARE [22]; Amaranthus retroflexus, 504 h, 80 g/ha, scored visually after 3 weeks vs untreated controls, 100% = plants have died, 0% = like control plants): 100%
pest or weed control at 5 g/ha (MATIN [23]; dosage 5 g/ha): 90%
pest or weed control at 20 g/ha (MATIN [23]; dosage 20 g/ha): 90%
pest or weed control at 80 g/ha (AVEFA [24]; Avena fatua, 504 h): 80%

CCNC(=O)c1c(C(F)(F)F)ccc(C(=O)Nc2nnc(C)o2)c1C [Example 6-26]
Pre-emergence action against STEME in % (STEME [25]; dosage 20 g/ha): 80%
Pre-emergence action against STEME in % (STEME [25]; dosage 80 g/ha): 100%
Post-emergence action against DIGSA in % (DIGSA [1]; 5 g/ha): 90%
Post-emergence action against DIGSA (DIGSA [1]; 20 g/ha): 90%
Post-emergence action against STEME in % (STEME [26]): 80%
Pre-emergence action against SETVI in % (SETVI [2]): 100%
Pre-emergence action against VIOTR in % (VIOTR [3]; dosage 80 g/ha): 100%
Pre-emergence action against ALOMY (herbicidal activity) (ALOMY [4]): 80%
Pre-emergence action against ECHCG in % (ECHCG [5]; 80 g/ha): 100%
Post-emergence action against ABUTH in % (ABUTH [8]; dosage 5 g/ha): 90%
Post-emergence action against ABUTH in % (ABUTH [8]; dosage 20 g/ha): 90%
Post-emergence action against VIOTR in % (VIOTR [10]): 100%
Post-emergence action at 20 g/ha against AMARE in % (AMARE [11]): 100%
Post-emergence action against ECHCG in % (ECHCG [12]; dosage 5 g/ha): 80%
Post-emergence action against ECHCG in % (ECHCG [12]; dosage 20 g/ha): 90%
Pre-emergence action against HORMU in % (HORMU): 80%
Pre-emergence action against ABUTH (herbicidal activity) (ABUTH [13]; [27]): 100%
Pre-emergence action against ABUTH (herbicidal activity in percent) (ABUTH [13]; dosage 20 g/ha, scored visually after 3 weeks vs untreated controls, 100% = plants have died, 0% = like control plants): 100%
Post-emergence action against PHBPU in % (PHBPU [14]): 80%
Pre-emergence action against MATIN in % (MATIN [15]; dosage 20 g/ha): 80%
Pre-emergence action against MATIN in % (MATIN [15]; dosage 80 g/ha): 90%
Pre-emergence action against DIGSA in % (DIGSA [16]; dosage 20 g/ha): 100%
Pre-emergence action against DIGSA in % (DIGSA [16]; dosage 80 g/ha): 100%
Post-emergence action against SETVI in % (SETVI [18]): 80%
Pre-emergence action against POLCO in % (POLCO [20]): 100%
Post-emergence action against POLCO in % (POLCO [21]): 80%
Pre-emergence action against AMARE in % (AMARE [22]; 20 g/ha, scored visually after 3 weeks vs untreated controls, 100% = plants have died, 0% = like control plants): 100%
Pre-emergence action against AMARE in % (AMARE [22]; [27]): 100%
Pre-emergence action against AVEFA in % (AVEFA [24]): 80%
